Test results as given in US20140357633A1, “COMPOUNDS FOR INHIBITING THE INTERACTION OF BCL2 WITH BINDING PARTNERS” (NOVARTIS AG, priority 2011, published 2014).
“And” between values parts separate entries of the source, which are not always exact repeats. Equal values may be shown once.

Key:
[1] = biological target: BCL-2 (binding to BAK peptide) (Homo sapiens, UniProt P10415); assay: SPR (Biacore) solution inhibition assay, BCL-2 binding to immobilized BAK peptide; conditions: biotinylated BAK peptide surface, 56 nM BCL-2, 25° C.; range = high and low IC50 values from multiple experiments; read-out: BCL2_SPR IC50 BAK
BCL-2 (binding to BAK peptide), sequence (P10415 whole entry): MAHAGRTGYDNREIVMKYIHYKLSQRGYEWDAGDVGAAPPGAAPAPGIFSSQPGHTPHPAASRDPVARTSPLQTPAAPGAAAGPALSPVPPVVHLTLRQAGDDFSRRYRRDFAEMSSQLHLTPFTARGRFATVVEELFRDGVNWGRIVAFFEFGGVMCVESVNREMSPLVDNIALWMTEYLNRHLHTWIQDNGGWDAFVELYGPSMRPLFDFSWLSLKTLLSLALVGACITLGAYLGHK
Source text: (§1) The present method includes utility of a Surface plasmon resonance (SPR)-based biosensor (Biacore™′ GE Healthcare, Uppsala, Sweden) to characterize BCL-2 inhibitors.
(§2) Biacore™ utilizes the phenomenon of surface plasmon resonance (SPR) to detect and measure binding interactions. In a typical Biacore experiment, one of the interacting molecules (ligand) is immobilized on a flexible dextran matrix while the interacting partner (analyte) is allowed to flow across that surface. A binding interaction results in an increase in mass on the sensor surface and a corresponding direct change in the refractive index of the medium in the vicinity of the sensor surface. Changes in refractive index or signal are recorded in resonance units (R.U.) Signal changes due to association and dissociation of complexes are monitored in a non-invasive manner, continuously and in real-time, the results of which are reported in the form of a sensorgram.
(§3) The SPR assay is configured to examine solution inhibition of BCL-2 binding to peptide derivatized sensor surfaces to generate IC50 values as a measure of inhibitor potency.
(§4) Biacore™ A100 (GE Healthcare, Uppsala, Sweden) was used to conduct all experiments reported herein. Sensor surface preparation and all interaction analyses experiments were performed at 25° C. Reagents were purchased from GE Healthcare. Running buffer containing 10 mM Hepes, pH7.4, 150 mM sodium chloride, 1.25 mM Dithiothreitol, 3% Dimethyl sulfoxide and 0.05% polysorbate 20 were utilized throughout all analyses.
(§5) Biotinylated BAK, BAD and NOXA peptides were diluted to 10 nM in running buffer and captured onto a sensor surface pre-derivatized with streptavidin (sensor chip SA) to peptide surface densities in the range 50-100 R.U. Peptide captured surfaces were blocked with 500 μM PEO2-Biotin.
(§6) Interaction analyses were performed by first equilibrating each sample within a 6 point three fold compound dilution series in the range 16 μM to […] with 56 nM BCL-2 for one hour during instrument start-up procedures. Protein compound mixtures were then injected over each peptide surface in parallel for 60 seconds at a flow-rate of 30 μL/min. 56 nM BCL-2 control samples were also prepared and run at regular intervals during the assay. Surface regeneration was performed at the end of each analysis cycle by two 30 second injections of 10 mM Glycine, pH 2.5, 1M Sodium Chloride, 0.05% polysorbate 20. Samples and control compound samples were run in duplicate and controls are also run at regular intervals during the assay to monitor surface and assay performance.
(§7) Data analyses are carried out using Biacore™ A100 evaluation software v1.1 to validate assay quality. Binding level report points were used relative to BCL-2 control samples to calculate % inhibition values for each compound protein mixture. […] The range of data shown in table 1 represents the high and low IC50 values obtained from multiple experiments.

[2] = biological target: BCL-2 (binding to BAD peptide) (Homo sapiens, UniProt P10415); assay: SPR (Biacore) solution inhibition assay, BCL-2 binding to immobilized BAD peptide; conditions: biotinylated BAD peptide surface, 56 nM BCL-2, 25° C.; range = high and low IC50 values from multiple experiments; read-out: BCL2_SPR IC50 BAD
BCL-2 (binding to BAD peptide), sequence (P10415 whole entry): as above
Source text: as §1, §2, §3, §4, §5, §6, §7

| IC50 [1] | IC50 [2] | SMILES |
| --- | --- | --- |
| 0.229 to 0.271 µM | 0.306 to 0.319 µM | CCCCN(CCCC)C(=O)c1cc(C)n(-c2ccc(NC(=O)CCCc3ccc([N+](=O)[O-])cc3)cc2C(=O)N2Cc3ccccc3C[C@H]2CO)n1 [Example 61] |
| 0.107 to 0.111 µM | 0.129 to 0.14 µM | CCCCN(CCCC)C(=O)c1cc(C)n(-c2ccc(NC(=O)C(CC#N)c3ccccc3)cc2C(=O)N2Cc3ccccc3C[C@H]2CO)n1 (some centres unmarked) [Example 135] |
| 0.0673 to 0.0739 µM | 0.0913 to 0.101 µM | CCCCN(CCCC)C(=O)c1cc(C)n(-c2ccc(NC(=O)Cc3cccc(OC)c3)cc2C(=O)N2Cc3ccccc3C[C@H]2CO)n1 [Example 69] |
| 0.0736 to 0.0838 µM | 0.0999 to 0.103 µM | CCCCN(CCCC)C(=O)c1cc(C)n(-c2ccc(NC(=O)Cc3ccc(OC)c(C(F)(F)F)c3)cc2C(=O)N2Cc3ccccc3C[C@H]2CO)n1 [Example 78] |
| 0.252 to 0.256 µM | 0.351 to 0.376 µM | CCCCN(CCCC)C(=O)c1cc(C)n(-c2ccc(NC(=O)C3CC(=O)N(CCc4ccc(OC)c(OC)c4)C3)cc2C(=O)N2Cc3ccccc3C[C@H]2CO)n1 (some centres unmarked) [Example 104] |
| 0.177 to 0.178 µM | 0.27 to 0.272 µM | CCCCN(CCCC)C(=O)c1cc(C)n(-c2ccc(NC(=O)COC3CCCCC3)cc2C(=O)N2Cc3ccccc3C[C@H]2CO)n1 [Example 128] |
| 0.203 to 0.205 µM | 0.234 to 0.245 µM | CCCCN(CCCC)C(=O)c1cc(C)n(-c2ccc(NC(=O)COc3cccnc3)cc2C(=O)N2Cc3ccccc3C[C@H]2CO)n1 [Example 32] |
| 2.38 to 4.33 µM | 5.79 to 6.25 µM | CCCCN(CCCC)C(=O)c1cc(C)n(-c2ccc(NC(=O)c3ccc(SC(F)(F)F)cc3)cc2C(=O)N2Cc3ccccc3C[C@H]2CO)n1 [Example 154] |
| 0.416 to 0.491 µM | 0.527 to 0.597 µM | CCCCN(CCCC)C(=O)c1cc(C)n(-c2ccc(NC(=O)c3cn4cc(Cl)ccc4n3)cc2C(=O)N2Cc3ccccc3C[C@H]2CO)n1 [Example 43] |
| 0.0954 to 0.0982 µM | 0.119 to 0.123 µM | CCCCN(CCCC)C(=O)c1cc(C)n(-c2ccc(NC(=O)Cc3ccc(OC)c(OC)c3)cc2C(=O)N2Cc3ccccc3C[C@H]2CO)n1 [Example 136] |
| 0.0583 to 0.0612 µM | 0.0674 to 0.0761 µM | CCCCN(CCCC)C(=O)c1cc(C)n(-c2ccc(NC(=O)Cc3c(C)[nH]c4c(F)cccc34)cc2C(=O)N2Cc3ccccc3C[C@H]2CO)n1 [Example 63] |
| 0.106 to 0.116 µM | 0.142 µM | CCCCN(CCCC)C(=O)c1cc(C)n(-c2ccc(NC(=O)COc3ccccc3C#N)cc2C(=O)N2Cc3ccccc3C[C@H]2CO)n1 [Example 66] |
| 0.0755 to 0.0791 µM | 0.0842 to 0.0885 µM | CCCCN(CCCC)C(=O)c1cc(C)n(-c2ccc(NC(=O)[C@@H](C)c3ccccc3)cc2C(=O)N2Cc3ccccc3C[C@H]2CO)n1 [Example 52] |
| 0.127 to 0.129 µM | 0.172 to 0.174 µM | CCCCN(CCCC)C(=O)c1cc(C)n(-c2ccc(NC(=O)C(C)CC(=O)O)cc2C(=O)N2Cc3ccccc3C[C@H]2CO)n1 (some centres unmarked) [Example 37] |
| 1.26 to 1.35 µM | 2.63 to 2.75 µM | CCCCN(CCCC)C(=O)c1cc(C)n(-c2ccc(NC(=O)c3csc(-c4cccc(Cl)c4Cl)n3)cc2C(=O)N2Cc3ccccc3C[C@H]2CO)n1 [Example 144] |
| 0.299 to 0.351 µM | 0.369 to 0.398 µM | CCCCN(CCCC)C(=O)c1cc(C)n(-c2ccc(NC(=O)CCc3cn4cccnc4n3)cc2C(=O)N2Cc3ccccc3C[C@H]2CO)n1 [Example 79] |
| 0.486 to 0.509 µM | 0.35 to 0.375 µM | CCCCN(CCCC)C(=O)c1cc(C)n(-c2ccc(NC(=O)c3cc4cc(O)ccc4[nH]3)cc2C(=O)N2Cc3ccccc3C[C@H]2CO)n1 [Example 87] |
| 0.0361 to 0.0368 µM | 0.0435 to 0.0443 µM | CCCCN(CCCC)C(=O)c1cc(C)n(-c2ccc(NC(=O)[C@H](OC)c3ccc4ccccc4c3)cc2C(=O)N2Cc3ccccc3C[C@H]2CO)n1 [Example 162] |
| 0.072 to 0.0747 µM | 0.0935 to 0.0999 µM | CCCCN(CCCC)C(=O)c1cc(C)n(-c2ccc(NC(=O)c3cc(S(N)(=O)=O)ccc3OC)cc2C(=O)N2Cc3ccccc3C[C@H]2CO)n1 [Example 71] |
| 1.97 to 2.07 µM | 2.47 to 2.63 µM | CCCCN(CCCC)C(=O)c1cc(C)n(-c2ccc(NC(=O)c3ccc(Oc4ccccc4)nc3)cc2C(=O)N2Cc3ccccc3C[C@H]2CO)n1 [Example 141] |
| 0.153 to 0.175 µM | 0.216 to 0.25 µM | CCCCN(CCCC)C(=O)c1cc(C)n(-c2ccc(NC(=O)CCC(=O)O)cc2C(=O)N2Cc3ccccc3C[C@H]2CO)n1 [Example 17] |
| 0.275 to 0.287 µM | 0.315 to 0.343 µM | CCCCN(CCCC)C(=O)c1cc(C)n(-c2ccc(NC(=O)c3cccc(-c4ccccc4F)c3)cc2C(=O)N2Cc3ccccc3C[C@H]2CO)n1 [Example 140] |

Second part, the molecule before the results:

| SMILES | IC50 [1] | IC50 [2] |
| --- | --- | --- |
| CCCCN(CCCC)C(=O)c1cc(C)n(-c2ccc(NC(=O)COc3ccccc3Cl)cc2C(=O)N2Cc3ccccc3C[C@H]2CO)n1 [Example 23] | 3.9 to 4.17 µM | 4.85 to 4.93 µM |
| CCCCN(CCCC)C(=O)c1cc(C)n(-c2ccc(NC(=O)c3n[nH]c4c3CCC4)cc2C(=O)N2Cc3ccccc3C[C@H]2CO)n1 [Example 112] | 0.696 to 0.875 µM | 0.964 to 1.03 µM |
| CCCCN(CCCC)C(=O)c1cc(C)n(-c2ccc(NC(=O)c3cc(C(C)C)nn3CC)cc2C(=O)N2Cc3ccccc3C[C@H]2CO)n1 [Example 85] | 0.741 to 0.784 µM | 0.923 to 0.932 µM |
| CCCCN(CCCC)C(=O)c1cc(C)n(-c2ccc(NC(=O)OCC(C)C)cc2C(=O)N2Cc3ccccc3C[C@H]2CO)n1 [Example 9] | 0.394 to 0.452 µM | 0.499 to 0.606 µM |
| CCCCN(CCCC)C(=O)c1cc(C)n(-c2ccc(NC(=O)c3ncoc3-c3ccccc3)cc2C(=O)N2Cc3ccccc3C[C@H]2CO)n1 [Example 44] | 0.236 to 0.238 µM | 0.273 to 0.284 µM |
| CCCCN(CCCC)C(=O)c1cc(C)n(-c2ccc(NC(=O)COc3ccc(C(C)C)cc3)cc2C(=O)N2Cc3ccccc3C[C@H]2CO)n1 [Example 18] | 0.185 to 0.265 µM | 0.192 to 0.252 µM |
| CCCCN(CCCC)C(=O)c1cc(C)n(-c2ccc(NC(=O)COc3ccc4ccccc4c3)cc2C(=O)N2Cc3ccccc3C[C@H]2CO)n1 [Example 126] | 0.0488 to 0.0505 µM | 0.06 to 0.0614 µM |
| CCCCN(CCCC)C(=O)c1cc(C)n(-c2ccc(NC(=O)c3c(C)n(C)n(-c4ccccc4)c3=O)cc2C(=O)N2Cc3ccccc3C[C@H]2CO)n1 [Example 73] | 0.0587 to 0.0829 µM | 0.0741 to 0.1 µM |
| CCCCN(CCCC)C(=O)c1cc(C)n(-c2ccc(NC(=O)C(CC(=O)OC)c3ccccc3)cc2C(=O)N2Cc3ccccc3C[C@H]2CO)n1 (some centres unmarked) [Example 6] | 0.105 to 0.107 µM | 0.12 to 0.121 µM |
| CCCCN(CCCC)C(=O)c1cc(C)n(-c2ccc(NC(=O)COc3ccc(OCc4ccccc4)cc3)cc2C(=O)N2Cc3ccccc3C[C@H]2CO)n1 [Example 20] | 1.22 to 2.07 µM | 1.22 to 1.81 µM |
| CCCCC(CCCC)C(=O)c1cc(C)n(-c2ccc(NC(=O)C(CC(=O)O)C3CCCCC3)cc2C(=O)N2Cc3ccccc3C[C@H]2CO)n1 (some centres unmarked) [Example 103] | 0.0502 to 0.0519 µM | 0.0541 to 0.0559 µM |
| CCCCN(CCCC)C(=O)c1cc(C)n(-c2ccc(NC(=O)CC(C)S(=O)(=O)c3ccc(Cl)cc3)cc2C(=O)N2Cc3ccccc3C[C@H]2CO)n1 (some centres unmarked) [Example 90] | 0.159 to 0.187 µM | 0.156 to 0.21 µM |
| CCCCN(CCCC)C(=O)c1cc(C)n(-c2ccc(NC(=O)C3CC(=O)N(Cc4ccccc4Cl)C3)cc2C(=O)N2Cc3ccccc3C[C@H]2CO)n1 (some centres unmarked) [Example 41] | 0.0754 to 0.0833 µM | 0.0964 to 0.0976 µM |
| CCCCN(CCCC)C(=O)c1cc(C)n(-c2ccc(NC(=O)c3ccc4c(c3)N=S=N4)cc2C(=O)N2Cc3ccccc3C[C@H]2CO)n1 [Example 84] | 0.862 to 0.957 µM | 1.02 to 1.04 µM |
| CCCCN(CCCC)C(=O)c1cc(C)n(-c2ccc(NC(=O)Cc3nc(-c4ccccc4)oc3C)cc2C(=O)N2Cc3ccccc3C[C@H]2CO)n1 [Example 106] | 0.106 to 0.11 µM | 0.131 to 0.14 µM |
| CCCCN(CCCC)C(=O)c1cc(C)n(-c2ccc(NC(=O)c3ccc4c(C)c(C)[nH]c4c3)cc2C(=O)N2Cc3ccccc3C[C@H]2CO)n1 [Example 86] | 0.432 to 0.44 µM | 0.611 to 0.628 µM |
| CCCCN(CCCC)C(=O)c1cc(C)n(-c2ccc(NC(=O)Cc3ccc4ccccc4c3)cc2C(=O)N2Cc3ccccc3C[C@H]2CN)n1 [Example 54] | 0.0581 to 0.0593 µM and 0.0589 to 0.0688 µM | 0.0669 to 0.0677 µM and 0.0698 to 0.0798 µM |
| CCCCN(CCCC)C(=O)c1cc(C)n(-c2ccc(NC(=O)Cc3ccc(OC)c(Br)c3)cc2C(=O)N2Cc3ccccc3C[C@H]2CO)n1 [Example 131] | 0.0233 to 0.0308 µM | 0.0278 to 0.0366 µM |
